Six compounds from patent US20250360180A1, “ECHINOCANDIN COMPOUND, AND PREPARATION METHOD THEREFOR AND USE THEREOF” (Zhejiang University, priority 2022, published 2025) can be followed below.

Values after ≈ are worked out from the molar mass of the structure shown.

The subject of the experiment is Candida albicans ATCC 10231. Kind of experiment: Minimum inhibitory concentration (MIC) by broth microdilution method. The settings on record: for MIC value: broth microdilution in MH broth, 37° C., 12 hours, OD600, MIC = lowest concentration that inhibited the growth of more than 90% of the strains; for activity against Candida albicans (in words): summary statement of the MIC experiments. The experiment is classed as cell-based. How it is done: The minimum inhibitory concentration (MIC) values of echinocandin E and echinocandin F were determined by broth microdilution method, and the test strain was Candida albicans ATCC 10231. The MIC value was defined as the lowest antibiotic concentration that inhibited the growth of more than 90% of the strains. Amphotericin B was used as a positive control and echinocandin B as a reference, and each sample was subjected to three parallel experiments.
Candida albicans was cultured in Mueller-Hinton (MH) broth (50 mL 20× Nitrate Salts, 1 mL Trace Elements, and 10.0 g glucose, dissolved in 800 mL ddH2O, adjusted to pH 6.5, fixed to 1 L, added with 16.0 g agar powder, and sterilized at 121° C. for 20 min) (purchased from Hangzhou Basebio Biotechnology Co., Ltd. (Basebio)) and cultured at 37° C. and 180 rpm for 12-16 hours. The fungal solution concentration was controlled to […] by gradient dilution with MH broth.
The sample solution was prepared by dissolving the test samples (amphotericin B, echinocandin B, echinocandin E, echinocandin F) in DMSO to prepare a stock solution with a concentration of 40 μg/ml. An appropriate amount of sterile MH broth medium and the test compounds were added to a 96-well plate, and Candida albicans was quantitatively inoculated so that the total liquid volume in each well was 100 μL. The final concentrations of the compounds were 2, 1.5, 1, 0.8, 0.6, 0.4, 0.2, 0.1, 0.05 and 0 μg/ml, respectively, and DMSO (volume concentration of 5%) was used as a negative control.
The fungal concentration was measured at OD600 using an ELISA reader to determine the MIC value of each sample.
On the technique in general: Dilution methods test growth across graded concentrations, often in twofold steps.

Compound `C[C@@H]1[C@H](O)[C@@H](C)/C=C/C=C/C=C/C=C/C=C/C=C/C=C/[C@H](O[C@@H]2O[C@H](C)[C@@H](O)[C@H](N)[C@@H]2O)C[C@@H]2O[C@](O)(C[C@@H](O)C[C@@H](O)[C@H](O)CC[C@@H](O)C[C@@H](O)CC(=O)O[C@H]1C)C[C@H](O)[C@H]2C(=O)O` [Amphotericin B, reference compound] registered an MIC value of 0.2 µg/mL (≈ 0.216 µM).
Same read-out and setting: next, echinocandin B [reference compound]: 0.4 µg/mL.
Take echinocandin E: the MIC value came out at 0.6 µg/mL and the “activity against Candida albicans (in words)” value is listed as “good activity”.
The like results for echinocandin F were, in that order, 1.0 µg/mL and “good activity”.
As for echinocandin G, the MIC value was 0.8 µg/mL and the “activity against Candida albicans (in words)” value is “good activity”.
On the same counts, the results for echinocandin H are 0.8 µg/mL and “good activity”.
